Laboratory results published in patent US8821908B2, “Mold-resistant construction materials” (Henkel AG & Co. KGaA, priority 2004, dated 2014).

Columns and labels:
Format in all cases: cell-based
[1] = system: test fungi envisaged in DIN EN ISO 846 or Aspergillus niger (ATCC 6275) as sole test organism; assay: Fungal resistance of cured silicone joint sealant films, test along the lines of DIN EN ISO846 after QUV aging (infestation index); set-up: key to Infestation index: sum of weekly growth ratings (0 = no growth to 5 = fully overgrown)
Procedure: Cured silicone films (approximately 80×60×5 mm) are sprayed alternately for 15 minutes each with a spray solution (2% strength aqueous Texapon NSO solution containing 0.5% Dehydran 1513 defoamer), then irradiated with UV light for 15 minutes, in a QUV accelerated weathering instrument (e.g. QUV-spray model). Per week, the test specimens are exposed to 198 spraying units and 198 UV units. After 4 (792 shower cycles), 8 (1584 shower cycles), and 12 weeks (2376 shower cycles), test specimens are taken for microbiological examination. An unweathered sample is likewise investigated microbiologically.
The fungal resistance of cured joint-sealing compounds is assessed in a method based on DIN EN ISO846: “Determination of the action of microorganisms on plastics (ISO 846:1997 German version EN ISO 846: 1997); (amended).
Test specimens of cured joint-sealing compounds are applied planarly to an agar surface. A fungal suspension is caused to act on the test specimens and the surrounding agar surface. After incubation, an assessment is made of the growth on and around the test specimens.
Test conditions: The following important amendments and additions to the DIN EN ISO 846 are carried out: • (1) The test specimens are tested to DIN EN ISO 846 without pretreatment. Additionally, test specimens are also assessed in the test after pretreatment. This pretreatment (leaching) may take place, for example, by incubation for a number of weeks in a flow-traversed immersion bath with water or by accommodating suitable test specimens in a QUV; • (2) The fungal spore suspension is incubated under relatively harsh, realistic conditions with increased ambient air humidity (approximately 85% relative humidity) in a humid chamber; • (3) The test specimens are incubated on ‘complete nutrient medium’ (cf. DIN EN ISO 846 4.2.1.2 method B), but with ‘wort agar’; • (4) As test organisms use is made either of the test fungi envisaged in DIN EN ISO 846: • Aspergillus niger ATCC 6275 • Penicillium funiculosum ATCC 36839 • Paecilomyces variotii ATCC 18502 • Gliocladium virens ATCC 9645 • Chaetomium globosum ATCC 6205 • or, alternatively, the strain Aspergillus niger (ATCC 6275) as sole test organism.
Evaluation of the growth on the test elements: • 0=no growth visible under microscope viewing • 1=no growth visible with naked eye, but growth clearly visible under the microscope • 2=growth visible with naked eye, up to 25% of the sample surface overgrown • 3=growth visible with naked eye, up to 50% of the sample surface overgrown • 4=considerable growth, over 50% of the sample surface overgrown • 5=severe growth, entire sample surface overgrown
All in all, the specimens are incubated for 18 weeks and inoculated again after 4 and 8 weeks in each case. The individual evaluations are added over this period and reported collectively as the infestation index.
A commercially customary silicone joint sealant (e.g., Dow Corning 3390) is admixed with the actives described and stirred with a stirrer until homogeneity is achieved. Thereafter, films of the sealant are produced and tested as described above.

[2] = system: Aspergillus niger (DSM1988); assay: Sporulation inhibition on wort agar plates
Procedure: The surface of wort agar plates was contaminated with 100 μl in each case of a microbial suspension (10^3 CFU/ml) of Aspergillus niger (DSM1988). Added beforehand to the agar plates were different amounts of active (solutions in ethanol, for final concentrations see table). The plates were incubated at 25° C. for 3 days. Spore formation was assessed visually and the sporulation rate was ascertained in [%]. A growth inhibition or microbicidal effect only occurred for a concentration of 0.05% by weight OPP.

Candida albicans = assay: Hyphal formation and cell growth of Candida albicans
From the text: Fucoidin, also known under the name fucosidan or fucoidan, is a polysaccharide from brown algae (Fucus vesiculosa, bladder wrack) which consists principally of sulfated L-fucose in 1,2-α-glycosidic linkage.

[3] = Amount of active added 500 ppm in silicone joint sealant, evaluations (0-5) added over 18 weeks
[4] = Amount of active added 1000 ppm in silicone joint sealant, evaluations added over 18 weeks

Molecule: CCCCCCCCn1sc(Cl)c(Cl)c1=O [DCOIT]
- Infestation index [1, 3]: 77
- Infestation index [1, 4]: 81
- Infestation index ([1]; Amount of active added 2000 ppm in silicone joint sealant, evaluations added over 18 weeks): 78

Molecule: CC(C)(C)C(O)(CCc1ccc(Cl)cc1)Cn1cncn1 (stereo not shown) [Tebuconazole, a-(2-(4-chlorophenyl)ethyl)-a-(1,1-dimethylethyl)-1H-1,2,4-triazole-1-ethanol]
- Infestation index [1, 3]: 60
- Infestation index [1, 4]: 57
- Infestation index ([1]; Amount of active added 2500 ppm in silicone joint sealant, evaluations added over 18 weeks): 37
- Infestation index ([1]; Amount of active added 5000 ppm in silicone joint sealant, evaluations added over 18 weeks): 20
- Infestation index ([1]; Amount of active added 10000 ppm in silicone joint sealant, evaluations added over 18 weeks): 12
- dependence of mold prevention on concentration ([1]; in sealants, not observed with fungicides typically used at present): virtually linear dependence with increasing concentration

Molecule: Oc1ccccc1-c1ccccc1 [ortho-phenylphenol]
- Sporulation [%] ([2]; Concentration of OPP 0.00001 %, 25° C., 3 days, assessed visually): 95%
- Sporulation [%] ([2]; Concentration of OPP 0.00005 %, 25° C., 3 days): 95%
- Sporulation [%] ([2]; Concentration of OPP 0.0001 %, 25° C., 3 days): 95%
- Sporulation [%] ([2]; Concentration of OPP 0.0005 %, 25° C., 3 days): 50%
- Sporulation [%] ([2]; Concentration of OPP 0.001 %, 25° C., 3 days): 25%
- Sporulation [%] ([2]; Concentration of OPP 0.005 %, 25° C., 3 days): 0%
- concentration of complete suppression of spore formation relative to growth-inhibiting concentration ([2]; without any growth inhibition activity occurring): fifty times lower
- concentration at which a growth inhibition or microbicidal effect occurred ([2]; wort agar, 25° C., 3 days): 0.05 % by weight
- use concentration at which spore formation was suppressed completely ([2]; wort agar, 25° C., 3 days): 0.001 % by weight

Molecule: Fucoidin
- cell growth (Candida albicans): unaffected
- hyphal formation (Candida albicans): significantly reduced

Molecule: ortho-phenylphenol-silicic ester
- Sporulation [%] ([2]; Concentration of OPP-silicic ester 0.00001 %, 25° C., 3 days): 95%
- Sporulation [%] ([2]; Concentration of OPP-silicic ester 0.00005 %, 25° C., 3 days): 95%
- Sporulation [%] ([2]; Concentration of OPP-silicic ester 0.0001 %, 25° C., 3 days): 95%
- Sporulation [%] ([2]; Concentration of OPP-silicic ester 0.0005 %, 25° C., 3 days): 50%
- Sporulation [%] ([2]; Concentration of OPP-silicic ester 0.001 %, 25° C., 3 days): 25%
- Sporulation [%] ([2]; Concentration of OPP-silicic ester 0.005 %, 25° C., 3 days): 0%
- Sporulation [%] ([2]; Concentration of OPP-silicic ester 0.01 %, 25° C., 3 days): 0%
- use concentration at which spore formation was suppressed completely ([2]; wort agar, 25° C., 3 days): 0.005 % by weight
